# Measured values as given in PMC8152350, “High cytotoxicity of betulin towards fish and murine fibroblasts: Is betulin safe for nonneoplastic cells?” (BMC Veterinary Research, 2021).
# Values joined by “and” are separate entries in the source; they are usually repeats but may differ in a detail not shown here. Equal values may be shown once.
# Columns and labels:
# [1] = test system: GSF3.2 goat skin fibroblasts; design: method as in earlier work; details: GSF3.2, trypan blue; cited from earlier work
# [2] = test system: murine Balb/3T3 fibroblasts; design: method as in PMID 16112835; details: Balb/3T3, MTT assay; cited from earlier work
# NIH/3T3 cells = experiment: MTT assay (mitochondrial activity), murine fibroblasts
# Description: NIH/3T3 (ATCC CRL-1658) mouse embryonic fibroblasts were grown in Dulbecco’s modified Eagle’s medium (DMEM) supplemented with 2 mM glutamine, 10 % foetal bovine serum and a 1 % antibiotic-antimycotic solution at 37 °C in a humidified atmosphere with 5 % CO2.
# NIH/3T3 and BF-2 cells were seeded in 96-well plates at a density of 1 × 10^4 or 2 × 10^4 cells per well, respectively. After 24 h of incubation at an appropriate temperature, cells were exposed to betulin at the concentrations mentioned above for 24, 48 and 72 h. Control (untreated) cells served as the negative control and a reference point. Triton X-100 treated cells served as the positive internal control in MTT, NRU and LDH assays. Due to the specific character of SRB assay, there was no positive control in this test. After 24, 48 and 72 h of treatment, the four different cytotoxicity assays were performed. All experiments were repeated three times.
# The MTT assay is used to estimate mitochondrial damage, since it determines the activity of mitochondrial enzymes. These enzymes reduce the water-soluble tetrazolium dye MTT to insoluble purple formazan, which accumulates inside viable cells.
# The MTT assay was conducted using the protocol described by Mosmann, with some modifications described in our previous article.
# The MTT assay was used to determine the cytotoxicity of both betulin and the vehicle (DMSO).
# All experiments were repeated three times. […] Statistical analyses were performed using GraphPad Prism software (GraphPad Software, USA). Data were subjected to one-way analysis of variance (ANOVA). Dunnett’s posttest was used to determine differences between control and betulin-exposed cells at the same time points. Differences between the two cell lines at the same time points were determined using Student’s t-test. The 50 % cytotoxic concentrations (CC50, defined as the concentration of the compound that reduced cell viability by 50 %) were calculated using the Quest Graph™ ED50 Calculator (AAT Bioquest, Inc.).
# BF-2 cells = experiment: MTT assay (mitochondrial activity), fish fibroblasts; assay type: cell-based, bluegill
# Description: BF-2 (ATCC CCL-91) bluegill caudal trunk fibroblasts were grown in minimum essential medium (Eagle, EBSS) supplemented with 1 % nonessential amino acids (NEAAs), 10 % foetal bovine serum and 1 % antibiotic-antimycotic solution at 23 °C in a humidified atmosphere with 5 % CO2.
# All experiments were repeated three times.
structure (smiles),measurement,setting,value
"C[S+](C)[O-] [DMSO, Dimethyl sulfoxide]",DMSO concentrations giving significant increase in the number of live cells,[1],less than 0.1%
same,IC50 of DMSO,[2],2.75%
same,CC50 DMSO (MTT) 24 h,"NIH/3T3 cells; NIH/3T3, 24 h, mean ± SD, n = 3",2.989 ± 0.159%
same,CC50 DMSO (MTT) 48 h,"NIH/3T3 cells; NIH/3T3, 48 h, mean ± SD, n = 3",2.374 ± 0.395%
same,CC50 DMSO (MTT) 72 h,"NIH/3T3 cells; NIH/3T3, 72 h, mean ± SD, n = 3",1.635% and 1.635 ± 0.423%
same,maximum tolerable DMSO concentration,"NIH/3T3 cells; NIH/3T3, concentration at which viability exceeded 90 % throughout the experiment",0.625%
same,DMSO concentration with absence of any measurable activity of mitochondria,"NIH/3T3 cells; murine fibroblasts, MTT",10%
same,CC50 DMSO (MTT) 24 h,"BF-2 cells; BF-2, 24 h, mean ± SD, n = 3",5.031 ± 0.423%
same,CC50 DMSO (MTT) 48 h,"BF-2 cells; BF-2, 48 h, mean ± SD, n = 3",4.434 ± 0.717%
same,CC50 DMSO (MTT) 72 h,"BF-2 cells; BF-2, 72 h, mean ± SD, n = 3",4.794% and 4.794 ± 0.337%
same,maximum tolerable DMSO concentration,"BF-2 cells; BF-2, concentration at which viability exceeded 90 % throughout the experiment",1.25%
same,DMSO concentration with absence of any measurable activity of mitochondria,"BF-2 cells; fish fibroblasts, MTT",20%
